“Also recorded” adds a separate entry of the source.
System: human PBMCs
Experiment: Human PBMC cytokine response assay (IFN-γ and IFN-α in cell-free medium by ELISA), with or without cPLGA;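 on IFN-α (pg/ml) mean: 20 µg/mL compound for 24 hours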;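 on IFN-γ (pg/ml) mean: 20 µg/mL compound for 24 hours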
Type: cell-based
Settings: for immunomodulatory activity (IFN-γ / IFN-α secretion), in words: used alone (no cPLGA)
[1] = Table 25, mean of donors 28250-28253
[2] = Example 58, 0.8 ug/ml, mean of four individuals
[3] = Example 58, 4 ug/ml, mean of four individuals
[4] = Example 58, 20 ug/ml, mean of four individuals
[5] = mean of donors 110, 112, 119, 120, Table 14
[6] = mean of Donors 3-4, 20 μg/ml, 24 h
[7] = Table 24, mean of donors 28234-28237
[8] = mean of donors 28185-28188, Table 15

## OCCOCCOCCO [Triethylene glycol]
Table 25, donor 28250
  IFN-a: 16 pg/mL
Table 25, donor 28250, polynucleotides/spacers at amounts equivalent to the CIC, spacers alone 9 uM
  IFN-g: 15 pg/mL
Table 25, donor 28251
  IFN-a: 16 pg/mL
  IFN-g: 1 pg/mL
Table 25, donor 28252
  IFN-a: 16 pg/mL
  IFN-g: 7 pg/mL
Table 25, donor 28253
  IFN-a: 16 pg/mL
  IFN-g: 1 pg/mL
[1]
  IFN-a mean: 16 pg/mL
  IFN-g mean: 6 pg/mL

## (5′-TCGTCGA-3′-HEG)2-glycerol-HEG-5′-TCGTCGA-3′ (phosphodiester) [Compound C-93]
Table 9, donor 28089
  IFN-α: 0 pg/mL
  IFN-γ: 0 pg/mL
Table 9, donor 28090
  IFN-α: 30 pg/mL
  IFN-γ: 0 pg/mL
Table 9, donor 28098
  IFN-α: 25 pg/mL
  IFN-γ: 0 pg/mL
Table 9, donor 28099
  IFN-α: 29 pg/mL
  IFN-γ: 3 pg/mL
Table 9, mean of donors
  IFN-α mean: 21 pg/mL
  IFN-γ mean: 1 pg/mL
Table 11, donor 28042
  IFN-α: 7 pg/mL
  IFN-γ: 8 pg/mL
Table 11, donor 28043
  IFN-α: 3 pg/mL
  IFN-γ: 1 pg/mL
Table 11, donor 28044
  IFN-α: 81 pg/mL
  IFN-γ: 41 pg/mL
Table 11, donor 28045
  IFN-α: 61 pg/mL
  IFN-γ: 17 pg/mL
Table 11, mean of donors
  IFN-α mean: 38 pg/mL
  IFN-γ mean: 17 pg/mL
  activity when formulated with cPLGA, in words: significantly more active when formulated with cPLGA; also recorded: active only when formulated
  immunomodulatory activity (IFN-γ / IFN-α secretion), in words: inactive as CICs alone

## 5′-TCGTCGA-3′-(HEG)6-5′-TCGTCGA-3′ (phosphodiester linkages) [Compound C-36]
  activity when formulated with cPLGA, in words: significantly more active when formulated with cPLGA
  immunomodulatory activity (IFN-γ / IFN-α secretion), in words: inactive as CICs alone

## (5′-TCGAACGTTCGA-3′ (SEQ ID NO: 155)-HEG)3-trebler-HEG-5′-T-3′ (three copies HEG-trebler branched, HEG-T, chemistry not fully specified) [Compound C-175]
Example 58, 0.8 ug/ml, donor 1
  IFN-α: 21783 pg/mL
Example 58, 0.8 ug/ml, donor 2
  IFN-α: 16605 pg/mL
Example 58, 0.8 ug/ml, donor 3
  IFN-α: 851 pg/mL
Example 58, 0.8 ug/ml, donor 4
  IFN-α: 2874 pg/mL
[2]
  IFN-α mean: 10528 pg/mL
Example 58, 4 ug/ml, donor 1
  IFN-α: 7134 pg/mL
Example 58, 4 ug/ml, donor 2
  IFN-α: 6779 pg/mL
Example 58, 4 ug/ml, donor 3
  IFN-α: 906 pg/mL
Example 58, 4 ug/ml, donor 4
  IFN-α: 1951 pg/mL
[3]
  IFN-α mean: 4193 pg/mL
Example 58, 20 ug/ml, donor 1
  IFN-α: 2250 pg/mL
Example 58, 20 ug/ml, donor 2
  IFN-α: 732 pg/mL
Example 58, 20 ug/ml, donor 3
  IFN-α: 52 pg/mL
Example 58, 20 ug/ml, donor 4
  IFN-α: 52 pg/mL
[4]
  IFN-α mean: 771 pg/mL
Low doses (e.g., 0.8 ug/ml), four individuals
  IFN-α from human PBMC compared with parent oligonucleotide P-17, in words: induce significantly more IFN-α

## 5′-ACGTTCG-3′-HEG-5′-TCGTCGA-3′-HEG-5′-AGATGAT-3′ [Compound C-57]
Table 13, donor 28156
  IFN-α: 5 pg/mL
  IFN-γ: 419 pg/mL
Table 13, donor 28157
  IFN-α: 52 pg/mL
  IFN-γ: 323 pg/mL
Table 13, donor 28158
  IFN-α: 61 pg/mL
  IFN-γ: 67 pg/mL
Table 13, donor 28159
  IFN-α: 42 pg/mL
  IFN-γ: 262 pg/mL
Table 13, mean of donors
  IFN-α mean: 40 pg/mL
  IFN-γ mean: 268 pg/mL
  immunomodulatory activity (IFN-γ / IFN-α secretion), in words: somewhat more active than C-58

## 5′-AGATGAT-3′-HEG-5′-TCGTCGA-3′-HEG-5′-ACGTTCG-3′ [Compound C-59]
Donor 110, Table 14
  IFN-α: 2 pg/mL
  IFN-γ: 256 pg/mL
Donor 112, Table 14
  IFN-α: 6 pg/mL
  IFN-γ: 52 pg/mL
Donor 119, Table 14
  IFN-α: 2 pg/mL
  IFN-γ: 28 pg/mL
Donor 120, Table 14
  IFN-α: 2 pg/mL
  IFN-γ: 40 pg/mL
[5]
  IFN-α (pg/ml) mean: 3 pg/mL
  IFN-γ (pg/ml) mean: 94 pg/mL

## 5′-ATCTCGA-3′ [Compound P-5, reference compound]
Donor 3, 20 μg/ml, 24 h
  IFN-α (pg/ml) Donor 3: 0 pg/mL
  IFN-γ (pg/ml) Donor 3: 0 pg/mL
Donor 4, 20 μg/ml, 24 h
  IFN-α (pg/ml) Donor 4: 57 pg/mL
  IFN-γ (pg/ml) Donor 4: 3 pg/mL
[6]
  IFN-α (pg/ml) mean: 29 pg/mL
  IFN-γ (pg/ml) mean: 2 pg/mL
  immunomodulatory activity (IFN-γ / IFN-α secretion), in words: did not have immunomodulatory activity

## 5′-TCGTC-3′-HEG-5′-TCGTC-3′-HEG-5′-TCGTC-3′-HEG-5′-TCGTC-3′ [Compound C-43]
Table 10, donor 28042
  IFN-α: 0 pg/mL
  IFN-γ: 128 pg/mL
Table 10, donor 28043
  IFN-α: 14 pg/mL
  IFN-γ: 536 pg/mL
Table 10, donor 28044
  IFN-α: 20 pg/mL
  IFN-γ: 566 pg/mL
Table 10, donor 28045
  IFN-α: 0 pg/mL
  IFN-γ: 16 pg/mL
Table 10, mean of donors
  IFN-α mean: 8 pg/mL
  IFN-γ mean: 312 pg/mL
  activity when formulated with cPLGA, in words: induced considerable IFN-γ and IFN-α when formulated with cPLGA
Used alone
  IFN-γ induction, in words: induce IFN-γ when used alone

## 5′-TCGTCGA-3′-HEG-5′-TCGTCGA-3′ [Compound C-39]
Table 10, donor 28042
  IFN-α: 31 pg/mL
  IFN-γ: 343 pg/mL
Table 10, donor 28043
  IFN-α: 187 pg/mL
  IFN-γ: 488 pg/mL
Table 10, donor 28044
  IFN-α: 46 pg/mL
  IFN-γ: 281 pg/mL
Table 10, donor 28045
  IFN-α: 36 pg/mL
  IFN-γ: 137 pg/mL
Table 10, mean of donors
  IFN-α mean: 75 pg/mL
  IFN-γ mean: 312 pg/mL
Donor 110, Table 14
  IFN-α: 674 pg/mL
  IFN-γ: 604 pg/mL
Donor 112, Table 14
  IFN-α: 26 pg/mL
  IFN-γ: 116 pg/mL
Donor 119, Table 14
  IFN-α: 444 pg/mL
  IFN-γ: 108 pg/mL
Donor 120, Table 14
  IFN-α: 250 pg/mL
  IFN-γ: 32 pg/mL
  activity when formulated with cPLGA, in words: significant activity when formulated with cPLGA
  immunomodulatory activity (IFN-γ / IFN-α secretion), in words: active when used alone
[5]
  IFN-α (pg/ml) mean: 349 pg/mL
  IFN-γ (pg/ml) mean: 215 pg/mL

## 5′-TCGAACGTTCGA-3′ (SEQ ID NO: 155) (listed as DNA, chemistry not fully specified) [Compound P-17, reference compound]
Example 58, 0.8 ug/ml, donor 1
  IFN-α: 52 pg/mL
Example 58, 0.8 ug/ml, donor 2
  IFN-α: 105 pg/mL
Example 58, 0.8 ug/ml, donor 3
  IFN-α: 52 pg/mL
Example 58, 0.8 ug/ml, donor 4
  IFN-α: 286 pg/mL
[2]
  IFN-α mean: 124 pg/mL
Example 58, 4 ug/ml, donor 1
  IFN-α: 9154 pg/mL
Example 58, 4 ug/ml, donor 2
  IFN-α: 10388 pg/mL
Example 58, 4 ug/ml, donor 3
  IFN-α: 531 pg/mL
Example 58, 4 ug/ml, donor 4
  IFN-α: 837 pg/mL
[3]
  IFN-α mean: 5228 pg/mL
Example 58, 20 ug/ml, donor 1
  IFN-α: 1022 pg/mL
Example 58, 20 ug/ml, donor 2
  IFN-α: 1792 pg/mL
Example 58, 20 ug/ml, donor 3
  IFN-α: 52 pg/mL
Example 58, 20 ug/ml, donor 4
  IFN-α: 52 pg/mL
[4]
  IFN-α mean: 729 pg/mL

## 5′-TCGAACG-3′-HEG-5′-TCGAACG-3′-HEG-5′-TCGAACG-3′ [Compound C-50]
Table 10, donor 28042
  IFN-α: 36 pg/mL
  IFN-γ: 1324 pg/mL
Table 10, donor 28043
  IFN-α: 137 pg/mL
  IFN-γ: 1292 pg/mL
Table 10, donor 28044
  IFN-α: 193 pg/mL
  IFN-γ: 509 pg/mL
Table 10, donor 28045
  IFN-α: 35 pg/mL
  IFN-γ: 192 pg/mL
Table 10, mean of donors
  IFN-α mean: 100 pg/mL
  IFN-γ mean: 829 pg/mL
Donor 110, Table 14
  IFN-α: 716 pg/mL
  IFN-γ: 1096 pg/mL
Donor 112, Table 14
  IFN-α: 84 pg/mL
  IFN-γ: 264 pg/mL
Donor 119, Table 14
  IFN-α: 838 pg/mL
  IFN-γ: 52 pg/mL
Donor 120, Table 14
  IFN-α: 636 pg/mL
  IFN-γ: 48 pg/mL
[5]
  IFN-α (pg/ml) mean: 569 pg/mL
  IFN-γ (pg/ml) mean: 365 pg/mL
Used alone
  IFN-α induction, in words: generated more IFN-α than CICs containing a 5′-TCGT-3′
  immunomodulatory activity (IFN-γ / IFN-α secretion), in words: more active than other CG-containing CICs

## (5′-TCGTCGA-3′-HEG)2-glycerol-HEG-5′-AACGTTC-3′-HEG-5′-TCGA-3′ [Compound C-97]
Table 24, donor 28234
  IFN-α: 16 pg/mL
  IFN-γ: 10 pg/mL
Table 24, donor 28235
  IFN-α: 16 pg/mL
  IFN-γ: 119 pg/mL
Table 24, donor 28236
  IFN-α: 140 pg/mL
  IFN-γ: 269 pg/mL
Table 24, donor 28237
  IFN-α: 16 pg/mL
  IFN-γ: 980 pg/mL
[7]
  IFN-α mean: 47 pg/mL
  IFN-γ mean: 345 pg/mL
Donor 28185, Table 15
  IFN-a: 307 pg/mL
  IFN-g: 259 pg/mL
Donor 28186, Table 15
  IFN-a: 71 pg/mL
  IFN-g: 16 pg/mL
Donor 28187, Table 15
  IFN-a: 4 pg/mL
  IFN-g: 125 pg/mL
Donor 28188, Table 15
  IFN-a: 2 pg/mL
  IFN-g: 5 pg/mL
[8]
  IFN-a (pg/ml) mean: 96 pg/mL
  IFN-g (pg/ml) mean: 101 pg/mL
Mean ×2, Table 15
  IFN-a (pg/ml) ×2: 192 pg/mL
Mean ×4, Table 15
  IFN-g (pg/ml) ×4: 405 pg/mL
Used alone
  IFN-α induction, in words: reduction of IFN-α induction

From patent US9028845B2, “Chimeric immunomodulatory compounds and methods of using the same-IV” (Dynavax Technologies Corporation, priority 2001, dated 2015)
